pIC50: −log10 of the molar value.
What was measured:
Settings in all cases: PANC-1, 24 h
[1] = test system: PANC-1; test: Growth inhibition of human PANC1 cells in nutrient-deprived medium at 10 uM incubated for 24 hrs by MTT assay (reference value: 0.0 +/- 1.9%); type: functional
[2] = test system: PANC-1; test: Growth inhibition of human PANC1 cells in nutrient-rich medium at 10 uM incubated for 24 hrs by MTT assay (reference value: 0.0 +/- 3.8%); type: functional
[3] = test system: PANC-1; test: Growth inhibition of human PANC1 cells in nutrient-deprived medium incubated for 24 hrs by MTT assay; type: functional, cell-based

pIC50 [3]	SMILES	inhibition at 10 µM [1] [%]	inhibition at 10 µM [2] [%]
–	CC(C)=CCC1Cc2c(OCCCOc3ccc([N+](=O)[O-])cc3)cc(=O)n(CCCO)c2CC1(C)C (stereo not drawn)	47.5	0
–	CC(C)=CCOc1cc(=O)n(CCCO)c2c1CC(CC=C(C)C)C(C)(C)C2 (stereo not drawn)	20.7	7.5
–	COc1ccccc1NC(=O)Oc1cc(=O)n(CCCO)c2c1CC(C/C=C(\C)CCC=C(C)C)C(C)(C)C2 (stereo not drawn)	53	0
–	CC(C)=CCC/C(C)=C/CC1Cc2c(OCCCNC(=O)c3ccc([N+](=O)[O-])cc3)cc(=O)n(CCCO)c2CC1(C)C (stereo not drawn)	16.8	6.5
5.20	CC(C)=CCC/C(C)=C/CC1Cc2c(OCCCOc3ccc([N+](=O)[O-])cc3)cc(=O)n(CCCO)c2CC1(C)C (stereo not drawn)	65.1	9.8
–	COc1cccc(NC(=O)Oc2cc(=O)n(CCCO)c3c2CC(CC=C(C)C)C(C)(C)C3)c1 (stereo not drawn)	16.2	0
–	COc1ccc(OCCCOc2cc(=O)n(CCCO)c3c2CC(CC=C(C)C)C(C)(C)C3)cc1 (stereo not drawn)	47.7	4.1
–	CC(C)=CCC/C(C)=C/CC1Cc2c(OC(=O)Nc3cccc(C(F)(F)F)c3)cc(=O)n(CCCO)c2CC1(C)C (stereo not drawn)	44	6.7
–	CC(C)=CCC1Cc2c(OCCCNC(=O)c3cccs3)cc(=O)n(CCCO)c2CC1(C)C (stereo not drawn)	33.6	5.6
–	CC(C)=CCC1Cc2c(OC(=O)Nc3ccc(Cl)cc3)cc(=O)n(CCCO)c2CC1(C)C (stereo not drawn)	49.8	0
–	CC(C)=CCC/C(C)=C/CC1Cc2c(OC(=O)Nc3ccc(F)c(Cl)c3)cc(=O)n(CCCO)c2CC1(C)C (stereo not drawn)	25	0
–	CC(C)=CCC/C(C)=C/CC1Cc2c(OC(=O)Nc3ccc(F)c(F)c3)cc(=O)n(CCCO)c2CC1(C)C (stereo not drawn)	43.7	4.8
–	CC(C)=CCC/C(C)=C/CC1Cc2c(OC(=O)Nc3ccc(Cl)c(Cl)c3)cc(=O)n(CCCO)c2CC1(C)C (stereo not drawn)	20	0
–	CC(C)=CCC1Cc2c(OCCCNC(=O)c3ccc([N+](=O)[O-])cc3)cc(=O)n(CCCO)c2CC1(C)C (stereo not drawn)	49.9	9.1
–	CC(C)=CCC/C(C)=C/CC1Cc2c(OCc3ccccc3)cc(=O)n(CCCO)c2CC1(C)C (stereo not drawn)	46.5	1.5
–	CC(C)=CCC/C(C)=C/CC1Cc2c(OCCCNS(=O)(=O)c3ccc([N+](=O)[O-])cc3)cc(=O)n(CCCO)c2CC1(C)C (stereo not drawn)	7.4	0
–	CC(C)=CCC1Cc2c(OCc3ccccc3)cc(=O)n(CCCO)c2CC1(C)C (stereo not drawn)	-0.3	11.1
–	CC(C)=CCC1Cc2c(OC(=O)Nc3ccc(F)cc3F)cc(=O)n(CCCO)c2CC1(C)C (stereo not drawn)	69.7	0
–	COc1cccc(NC(=O)Oc2cc(=O)n(CCCO)c3c2CC(C/C=C(\C)CCC=C(C)C)C(C)(C)C3)c1 (stereo not drawn)	47	11.3
–	COc1ccc(NC(=O)Oc2cc(=O)n(CCCO)c3c2CC(CC=C(C)C)C(C)(C)C3)cc1 (stereo not drawn)	3.7	0
–	COc1ccc(OCCCOc2cc(=O)n(CCCO)c3c2CC(C/C=C(\C)CCC=C(C)C)C(C)(C)C3)cc1 (stereo not drawn)	20	0
–	CC(C)=CCC1Cc2c(OCCCNS(=O)(=O)c3ccc(Cl)cc3)cc(=O)n(CCCO)c2CC1(C)C (stereo not drawn)	24.7	9.8
–	CC(C)=CCC1Cc2c(OC(=O)Nc3ccccc3F)cc(=O)n(CCCO)c2CC1(C)C (stereo not drawn)	52.3	0

pIC50 [3]	SMILES	inhibition at 10 µM [1] [%]	inhibition at 10 µM [2] [%]
–	CC(C)=CCC1Cc2c(OC(=O)Nc3ccc(Cl)c(Cl)c3)cc(=O)n(CCCO)c2CC1(C)C (stereo not drawn)	61.4	1.8
–	CC(C)=CCC1Cc2c(OC(=O)Nc3cccc(C(F)(F)F)c3)cc(=O)n(CCCO)c2CC1(C)C (stereo not drawn)	54.3	0
–	CC(C)=CCC/C(C)=C/CC1Cc2c(O)cc(=O)n(CCCO)c2CC1(C)C (stereo not drawn)	28.7	0
–	COc1ccc(C(=O)NCCCOc2cc(=O)n(CCCO)c3c2CC(C/C=C(\C)CCC=C(C)C)C(C)(C)C3)cc1 (stereo not drawn)	45.7	14.1
–	CC(C)=CCC/C(C)=C/CC1Cc2c(OC(=O)Nc3ccc(Cl)cc3)cc(=O)n(CCCO)c2CC1(C)C (stereo not drawn)	47.2	4.3
–	CC(C)=CCC/C(C)=C/CC1Cc2c(OCC=C(C)C)cc(=O)n(CCCO)c2CC1(C)C (stereo not drawn)	30.3	15.9
–	CC(C)=CCC/C(C)=C/CC1Cc2c(OCCCNS(=O)(=O)c3ccc(Cl)cc3)cc(=O)n(CCCO)c2CC1(C)C (stereo not drawn)	14.5	16.1
–	CC(C)=CCC1Cc2c(OC(=O)Nc3cccc(F)c3)cc(=O)n(CCCO)c2CC1(C)C (stereo not drawn)	66.1	0
–	CC(C)=CCC/C(C)=C/CC1Cc2c(OC(=O)Nc3cccc(F)c3)cc(=O)n(CCCO)c2CC1(C)C (stereo not drawn)	52.3	0
–	CC(C)=CCC/C(C)=C/CC1Cc2c(OC(=O)Nc3ccc(F)cc3F)cc(=O)n(CCCO)c2CC1(C)C (stereo not drawn)	33.7	15.6
–	COc1ccc(C(=O)NCCCOc2cc(=O)n(CCCO)c3c2CC(CC=C(C)C)C(C)(C)C3)cc1 (stereo not drawn)	55.5	2.5
–	CC(C)=CCC1Cc2c(O)cc(=O)n(CCCO)c2CC1(C)C (stereo not drawn)	25.6	0
–	CC(C)=CCC/C(C)=C/COc1cc(=O)n(CCCO)c2c1CC(CC=C(C)C)C(C)(C)C2 (stereo not drawn)	10.6	18.4
–	CC(C)=CCC1Cc2c(OCCCNS(=O)(=O)c3ccc(C(F)(F)F)cc3)cc(=O)n(CCCO)c2CC1(C)C (stereo not drawn)	29.6	0
–	CC(C)=CCC1Cc2c(OCCCOc3ccc(Cl)cc3)cc(=O)n(CCCO)c2CC1(C)C (stereo not drawn)	22.7	0
–	CC(C)=CCC1Cc2c(OCCCNS(=O)(=O)c3ccc([N+](=O)[O-])cc3)cc(=O)n(CCCO)c2CC1(C)C (stereo not drawn)	47.7	17.3
–	CC(C)=CCC/C(C)=C/CC1Cc2c(OC(=O)Nc3ccc(F)cc3)cc(=O)n(CCCO)c2CC1(C)C (stereo not drawn)	43.9	6.2
–	CC(C)=CCC/C(C)=C/CC1Cc2c(OCCCOc3ccc(Cl)cc3)cc(=O)n(CCCO)c2CC1(C)C (stereo not drawn)	25.2	0
–	CC(C)=CCC1Cc2c(OCCCNS(=O)(=O)c3ccc(Br)cc3)cc(=O)n(CCCO)c2CC1(C)C (stereo not drawn)	19.5	3.7
–	CC(C)=CCC1Cc2c(OCCCNC(=O)c3ccco3)cc(=O)n(CCCO)c2CC1(C)C (stereo not drawn)	2.1	4.3
–	CC(C)=CCC/C(C)=C/COc1cc(=O)n(CCCO)c2c1CC(C/C=C(\C)CCC=C(C)C)C(C)(C)C2 (stereo not drawn)	15.8	3.1
–	CC(C)=CCC/C(C)=C/CC1Cc2c(OCCCNS(=O)(=O)c3ccc(Br)cc3)cc(=O)n(CCCO)c2CC1(C)C (stereo not drawn)	15.2	0
–	CC(C)=CCC/C(C)=C/CC1Cc2c(OCCCNS(=O)(=O)c3ccc(C(F)(F)F)cc3)cc(=O)n(CCCO)c2CC1(C)C (stereo not drawn)	26.4	0

— ChEMBL document CHEMBL4346665, “Synthesis and evaluation of tetrahydroquinolin-2(1H)-one derivatives as novel anti-pancreatic cancer agents via targeting autophagy” (Eur J Med Chem, 2019)
